Results: ChEMBL document CHEMBL1142219, “Discovery of platencin, a dual FabF and FabH inhibitor with in vivo antibiotic properties” (Proc Natl Acad Sci U S A, 2007)
In brackets after ≈: the same amount, converted by molar mass. Activity calls are given as the source filed them. No cut-off for these calls is given here.

Legend:
Staphylococcus aureus [1] = test: Inhibition of Staphylococcus aureus FabF assessed as reduced accumulation of long chain beta-ketoacyl-ACP at 2 ug/ml by FabF/FabH PAGE elongation assay
[2] = Inhibition of Staphylococcus aureus FabH assessed as reduced accumulation of acetoacetyl-ACP by FabF/FabH PAGE elongation assay
Staphylococcus aureus [3] = test: Inhibition of Staphylococcus aureus FabF assessed as reduced accumulation of long chain beta-ketoacyl-ACP at 20 ug/ml by FabF/FabH PAGE elongation assay
[4] = Toxicity in human RBC assessed as drug level causing hemolysis; type: cell-based; conditions: erythrocyte
Escherichia coli [5] = test: Antibacterial activity against wild type Escherichia coli; type: functional
HeLa = test: Cytotoxicity against human HeLa cells by MTT assay; type: functional, cell-based
Escherichia coli [6] = test: Antibacterial activity against efflux negative-tolC mutant containing Escherichia coli; type: functional
Enterococcus faecium = test: Antibacterial activity against vancomycin-resistant Enterococcus faecium; type: functional
Candida albicans = test: Antifungal activity against Candida albicans; type: functional
Staphylococcus aureus [7] = test: Antibacterial activity against methicillin and linezolid-resistant Staphylococcus aureus; type: functional
Staphylococcus aureus [8] = test: Inhibition of fatty acid synthesis in Staphylococcus aureus in whole cell activity assay; type: functional, organism-based
Mus musculus = species: Mus musculus; test: Toxicity in methicillin-sensitive Staphylococcus aureus infected mouse model at 150 ug/hr after 24 hrs; type: organism-based; conditions: in vivo
Staphylococcus aureus [9] = test: Antibacterial activity against methicillin-resistant Staphylococcus aureus; type: functional
Staphylococcus aureus [10] = test: Antibacterial activity against methicillin-sensitive Staphylococcus aureus infected mouse kidney assessed as log reduction of bacterial count at 150 ug/hr after 24 hrs; type: functional
Staphylococcus aureus [11] = test: Antibacterial activity against Staphylococcus aureus in presence of serum; type: functional
[12] = Inhibition of Staphylococcus aureus FabH by direct binding assay
Enterococcus faecalis = test: Antibacterial activity against macrolide-resistant Enterococcus faecalis; type: functional
[13] = Inhibition of Staphylococcus aureus FabF assessed as reduced accumulation of acetoacetyl-ACP by FabF/FabH PAGE elongation assay
[14] = Inhibition of Staphylococcus aureus FabF by direct binding assay
Staphylococcus aureus [15] = test: Antibacterial activity against vancomycin-intermediate resistant Staphylococcus aureus; type: functional
[16] = target: T1, Malonyl CoA-acyl carrier protein transacylase (Staphylococcus aureus) (UniProt Q93QD4); test: Inhibition of Staphylococcus aureus FabD assessed as reduced malonyl-ACP levels
T1 sequence (whole entry): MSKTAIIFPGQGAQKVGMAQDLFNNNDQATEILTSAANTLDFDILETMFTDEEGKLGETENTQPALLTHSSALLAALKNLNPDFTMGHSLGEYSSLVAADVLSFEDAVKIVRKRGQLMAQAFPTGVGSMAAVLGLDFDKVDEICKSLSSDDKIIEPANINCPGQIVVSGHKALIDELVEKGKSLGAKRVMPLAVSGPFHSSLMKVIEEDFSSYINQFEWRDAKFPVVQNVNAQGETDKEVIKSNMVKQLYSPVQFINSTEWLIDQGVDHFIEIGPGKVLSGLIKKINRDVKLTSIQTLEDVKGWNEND

Streptococcus pneumoniae [17] = test: Antibacterial activity against Streptococcus pneumoniae; type: functional
[18] = Inhibition of Staphylococcus aureus FabH assessed as reduced accumulation of long chain beta-ketoacyl-ACP by FabF/FabH PAGE elongation assay
Staphylococcus aureus [19] = test: Antibacterial activity against methicillin and macrolide-resistant Staphylococcus aureus; type: functional
Staphylococcus aureus [20] = test: Antibacterial activity against methicillin-sensitive Staphylococcus aureus; type: functional
Streptococcus pneumoniae [21] = test: Inhibition of fatty acid synthesis in Streptococcus pneumoniae in whole cell activity assay; type: functional, organism-based
Staphylococcus aureus [22] = test: Antibacterial activity against Staphylococcus aureus expressing antisense fabF assessed as drug level causing >5 mm zone of inhibition after 18 hrs by agar diffusion two plate differential sensitivity antisense assay; type: functional
[23] = Inhibition of Staphylococcus aureus FabF assessed as reduced accumulation of long chain beta-ketoacyl-ACP by FabF/FabH PAGE elongation assay
Staphylococcus aureus [24] = test: Inhibition of protein biosynthesis in Staphylococcus aureus upto 50 ug/ml in whole cell activity assay; type: functional, organism-based
Staphylococcus aureus [25] = test: Inhibition of cell wall biosynthesis in Staphylococcus aureus upto 50 ug/ml in whole cell activity assay; type: functional, organism-based
Staphylococcus aureus [26] = test: Inhibition of DNA biosynthesis in Staphylococcus aureus upto 50 ug/ml in whole cell activity assay; type: functional, organism-based
Staphylococcus aureus [27] = test: Inhibition of RNA biosynthesis in Staphylococcus aureus upto 50 ug/ml in whole cell activity assay; type: functional, organism-based

Structure (SMILES)	IC50 [2] [µM]	Activity [4] [µg/mL]	MIC (Escherichia coli [5]) [µg/mL]	IC50 (HeLa) [µg/mL]	MIC (Escherichia coli [6]) [µg/mL]	MIC (Enterococcus faecium) [µg/mL]	MIC (Candida albicans) [µg/mL]	MIC (Staphylococcus aureus [7]) [µg/mL]	IC50 (Staphylococcus aureus [8]) [µg/mL]	MIC (Staphylococcus aureus [9]) [µg/mL]	MIC (Staphylococcus aureus [11]) [µg/mL]	IC50 [12] [µM]	MIC (Enterococcus faecalis) [µg/mL]	MIC (Staphylococcus aureus [15]) [µg/mL]	Activity [16]	MIC (Streptococcus pneumoniae [17]) [µg/mL]	MIC (Staphylococcus aureus [19]) [µg/mL]	MIC (Staphylococcus aureus [20]) [µg/mL]	IC50 (Streptococcus pneumoniae [21]) [µg/mL]	Activity (Staphylococcus aureus [22]) [µg]	further results
O=C(O)c1cc2cc(OCc3c(Cl)cccc3Cl)ccc2n1Cc1cc2c(cc1Cl)OCO2	3.96	–	–	–	–	–	–	–	–	–	–	–	–	–	–	–	–	–	–	–	inhibition (Staphylococcus aureus [1]): 50%; inhibition (Staphylococcus aureus [3]): 90%
C[C@@H]1[C@H](O)[C@@H](C)/C=C/C=C/C=C/C=C/C=C/C=C/C=C/[C@H](O[C@@H]2O[C@H](C)[C@@H](O)[C@H](N)[C@@H]2O)C[C@@H]2O[C@](O)(C[C@@H](O)C[C@@H](O)[C@H](O)CC[C@@H](O)C[C@@H](O)CC(=O)O[C@H]1C)C[C@H](O)[C@H]2C(=O)O [AMPHOTERICIN B]	–	2	–	–	–	–	–	–	–	–	–	–	–	–	–	–	–	–	–	–	–
O=C(N[C@H](CO)[C@H](O)c1ccc([N+](=O)[O-])cc1)C(Cl)Cl [CHLORAMPHENICOL]	–	> 64	–	–	–	–	–	–	–	–	–	–	–	–	–	–	–	–	–	–	–
CC(=O)NC[C@H]1CN(c2ccc(N3CCOCC3)c(F)c2)C(=O)O1 [LINEZOLID]	–	> 67	> 64	> 100	32 (≈ 94.9 µM)	2 (≈ 5.93 µM)	> 64	32 (≈ 94.9 µM)	–	–	–	–	–	–	–	–	–	–	–	–	–
C=C1C[C@@]23C=CC(=O)[C@@](C)(CCC(=O)Nc4c(O)ccc(C(=O)O)c4O)[C@@H]2C[C@@H]1CC3 [PLATENCIN]	–	> 67	> 64	> 100	2 (≈ 4.7 µM)	< 0.06	> 64	1 (≈ 2.35 µM)	0.19 (≈ 0.447 µM)	1 (≈ 2.35 µM)	8	16.2	2 (≈ 4.7 µM)	0.5 (≈ 1.18 µM)	inactive	4 (≈ 9.4 µM)	1 (≈ 2.35 µM)	0.5 (≈ 1.18 µM)	2.7 (≈ 6.35 µM)	0.002	Activity (Mus musculus): Non-toxic; Activity (Staphylococcus aureus [10]): 3; IC50 [13]: 4.58 µM; IC50 [14]: 0.113 µM; IC50 [18]: 9.17 µM
CC12C[C@@]34C=CC(=O)[C@@](C)(CCC(=O)Nc5c(O)ccc(C(=O)O)c5O)C3[C@H](CC1C4)O2 (stereo partly specified) [PLATENSIMYCIN]	247	> 67	> 64	> 1000	16 (≈ 36.2 µM)	0.1 (≈ 0.227 µM)	> 64	1 (≈ 2.27 µM)	0.1 (≈ 0.227 µM)	0.5 (≈ 1.13 µM)	2	67	1 (≈ 2.27 µM)	0.5 (≈ 1.13 µM)	inactive	1 (≈ 2.27 µM)	0.5 (≈ 1.13 µM)	0.5 (≈ 1.13 µM)	0.8 (≈ 1.81 µM)	0.004	IC50 [23]: 0.29 µM; Activity (Staphylococcus aureus [24]): inactive; Activity (Staphylococcus aureus [25]): inactive; Activity (Staphylococcus aureus [26]): inactive; Activity (Staphylococcus aureus [27]): inactive
